Active and inactive are the calls of the source. No cut-off for these calls is given here.
Assays:
Hepatitis C virus [1] = test: Antiviral activity against HCV con1 replicon by HCV subgenomic replicon assay; assay type: functional, organism-based, Hepacivirus hominis; conditions: genotype 1b con1
[2] = Cytotoxicity against Huh7 cells expressing HCV con1 replicon; assay type: cell-based, Huh-7; conditions: human
Hepatitis C virus [3] = test: Incorporation by HCV con1 NS5Bdelta55 RNA polymerase upto 1mM; conditions: Hepatitis C virus subtype 1b
Hepatitis C virus [4] = test: Inhibition of recombinant HCV con1 NS5Bdelta21 RNA polymerase; parameters: species or system Hepatitis C virus subtype 1b
[5] = Cytotoxicity against MT4 cells; assay type: cell-based; conditions: human

Row | EC50 (Hepatitis C virus [1]) [µM] | IC50 (Hepatitis C virus [4]) [µM] | Compound | CC50 [2] [µM] | Activity (Hepatitis C virus [3]) | CC50 [5] [µM]
1 | > 500 | – | OCc1ncnc2c1ncn2[C@H]1O[C@@H](CO)[C@H](O)[C@@H]1O | > 500 | – | –
2 | – | – | O=P(O)(O)OC[C@@H]1O[C@H](n2cnc3c(Cc4ccccc4)ncnc32)[C@@H](OP(=O)(O)O)[C@H]1OP(=O)(O)O | – | inactive | –
3 | – | – | Nc1ncnc2c1ncn2[C@H]1O[C@@H](COP(=O)(O)O)[C@H](OP(=O)(O)O)[C@@H]1OP(=O)(O)O | – | inactive | –
4 | 41 | > 100 | OC[C@@H]1O[C@H](n2cnc3c(Cc4ccccc4)ncnc32)[C@@H](O)[C@H]1O | > 500 | inactive | > 500
5 | > 100 | – | OC[C@@H]1O[C@H](n2cnc3c(-c4ccco4)ncnc32)[C@@H](O)[C@H]1O | > 100 | – | –
6 | > 500 | – | CCc1ncnc2c1ncn2[C@H]1O[C@@H](CO)[C@H](O)[C@@H]1O | > 500 | – | –
7 | > 500 | – | Cc1ncnc2c1ncn2[C@H]1O[C@@H](CO)[C@H](O)[C@@H]1O | > 500 | – | –
8 | > 50 | – | COc1ccc(-c2ncnc3c2ncn3[C@H]2OC(CO)[C@H](O)[C@@H]2O)cc1 (single isomer, unassigned) | > 100 | – | –
9 | > 100 | – | OC[C@@H]1O[C@H](n2cnc3c(-c4ccccc4)ncnc32)[C@@H](O)[C@H]1O | > 50 | – | –
10 | 56 | – | OC[C@H]1O[C@H](n2cnc3c(-c4cccs4)ncnc32)[C@@H](O)[C@H]1O | > 100 | – | > 100

Row | Compound | EC50 (Hepatitis C virus [1]) [µM] | IC50 (Hepatitis C virus [4]) [µM] | CC50 [2] [µM] | Activity (Hepatitis C virus [3]) | CC50 [5] [µM]
11 | OC[C@@H]1O[C@H](n2cnc3c(-c4ccsc4)ncnc32)[C@@H](O)[C@H]1O | > 50 | – | > 50 | – | –
